For data set [1], the system named is MurI resistance mutant proteins (A75T or E151K). In words: Kinetic analysis of MurI resistance mutant proteins, forward direction (L-Glu→D-Glu). Format: biochemical, H. pylori.
Description: In this assay, the conversion of L-Glutamate to D-Glutamate was monitored spectrophotometrically through a two enzyme coupling system wherein, the production of D-glutamate is coupled to the incorporation of D-Glutamate into UDP-MurNAc-Ala-D-Glu by recombinant E. faecalis MurD, with concomitant hydrolysis of ATP to ADP and inorganic phosphate. […] Initial rates of reaction were determined by following the increase of absorbance at 360 nm in a 100 μL reaction volume containing 85 μL of reaction buffer (58 mM Tris, pH=8.0, 23.5 mM ammonium acetate, 23.5 mM magnesium acetate, 2.94 mM dithiothreitol, 2.94 mM adenosine triphosphate, 0.47 mM UDP-MurNAc-Ala, 0.47 mM MESG, 1.17 units./mL PNP, 16 μg/mL E. faecalis MurD, and 30 nM MurI) and 15 μL of L-Glutamate stock (0.05-10 mM). The increase in optical density at 360 nm was measured continuously in at 96 well microtitre plate in a Microplate Spectrophotometer System (Molecular Devices, SpectraMAX 250).
The target of data set [2] is T1, H. pylori MurI A75T mutant (Helicobacter pylori, UniProt Q9ZLT0, A75T).
T1 sequence (Q9ZLT0 1-255 A75T): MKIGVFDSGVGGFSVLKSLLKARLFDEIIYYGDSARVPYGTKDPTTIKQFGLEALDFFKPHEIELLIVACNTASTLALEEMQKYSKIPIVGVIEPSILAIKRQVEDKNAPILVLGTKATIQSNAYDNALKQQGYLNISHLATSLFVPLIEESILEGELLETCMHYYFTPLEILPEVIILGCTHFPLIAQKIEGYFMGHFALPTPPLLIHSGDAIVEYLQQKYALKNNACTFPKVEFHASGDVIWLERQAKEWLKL
To be noted: reverse direction.

Data set [3] concerns the target recombinant H. pylori MurI (Helicobacter pylori, UniProt Q9ZLT0).
Excerpt: Kinetic constant for recombinant MurI were estimated by assaying its activity at various concentrations of protein and D-glutamic acid as described above.
Data set [4] concerns the molecule itself. In words: X-ray crystallography, homodimer.
Data set [5] deals with the molecule itself. The experiment in a line: X-ray crystallography (molecular replacement), homodimer.

This note sets out measurements from patent US20050037478A1, “Crystal structure of glutamate racemase (MurI)” (priority 2002, published 2005).

Where only a bound is given, the exact number is not on record here.

Take `N[C@@H](CCC(=O)O)C(=O)O` [L-Glu, L-glutamate]: in data set [1], the “elevation of KM for L-Glu relative to the native enzyme” value stood at 10 fold and the “substrate inhibition by L-Glu” value was “no substrate inhibition”. The term Km denotes the concentration of substrate that gives half-maximal velocity. For `N[C@H](CCC(=O)O)C(=O)O` [D-glutamate], in data set [2] (mutant enzyme vs wild-type), the “shift of inhibition constant relative to the wild-type enzyme” value was more than 120 fold. The “substrate inhibition by D-glutamate” value in data set [2] (mutant enzyme) is reported as “exhibits substrate inhibition”. The substrate inhibition entry in data set [3] is recorded as “Severe substrate inhibition”. For the same molecule, the Km in data set [3] (read-out: Km for D-glutamate) came to 100 µM.

B1: Enterococcus faecalis glutamate racemase (MurI), monomer chain of the homodimer (enzyme)
chain: MSNQEAIGLIDSGVGGLTVLKEALKQLPNERLIYLGDTARCPYGPRPAEQVVQFTWEMADFLLKKRIKMLVIACNTATAVALEEIKAALPIPVVGVILPGARAAVKVTKNNKIGVIGTLGTIKSASYEIAIKSKAPAIEVTSLACPKFVPIVESNQYRSSVAKKIVAETLQALQLKGLDTLILGCTHYPLLRPVIQNVMGSHVTLIDSGAETVGEVSMLLDYFDIAHTPEAPTQPHEFYTTGSAKMFEEIASSWLGIENLKAQQIHLGGNEND
notes: also called E. faecalis MurI; E. faecalis glutamate racemase
Regarding B1, the binding result in data set [4] is reported as “binds”.

B2: Helicobacter pylori glutamate racemase (MurI), monomer chain of the homodimer (enzyme)
chain: MKIGVFDSGVGGFSVLKSLLKARLFDEIIYYGDSARVPYGTKDPTTIKQFGLEALDFFKPHEIELLIVACNTASALALEEMQKYSKIPIVGVIEPSILAIKRQVEDKNAPILVLGTKATIQSNAYDNALKQQGYLNISHLATSLFVPLIEESILEGELLETCMHYYFTPLEILPEVIILGCTHFPLIAQKIEGYFMGHFALPTPPLLIHSGDAIVEYLQQKYALKNNACTFPKVEFHASGDVIWLERQAKEWLKL
notes: also called H. pylori MurI; H. pylori glutamate racemase
On to B2, for which, in data set [4], the binding result was “binds”.

B3: Enterococcus faecium glutamate racemase (MurI), monomer chain of the homodimer (enzyme)
chain: MIRLTDNRPIGFIDSGVGGLTVVKEALKQLPNENILFVGDTARCPYGPRPAEQVIQYTWEMTDYLVEQGIKMLVIACNTATAVALEEIKAALSIPVIGVILPGTRAAVKKTQNKQVGIIGTIGTVKSQAYEKALKEKVPELTVTSLACPKFVSVVESNEYHSSVAKKIVAETLAPLTTKKIDTLILGCTHYPLLRPIIQNVMGENVQLIDSGAETVGEVSMLLDYFNLSNSPQNGRTLCQFYTTGSAKLFEEIAEDWLGIGHLNVEHIELGGK
notes: also called E. faecium MurI; EF2
For the molecule B3, the binding result in data set [5] is reported as “binds”.
